# PubChem BioAssay AID256 (DTP/NCI, 2004)
# “And” between values parts separate entries of the source, which are not always exact repeats. Equal entries are not always repeated. Toxic doses and inconclusive results are not listed.
# Test system: CD2F1 mice, L1210 leukemia ip, survival T/C
# Assay: NCI In Vivo Anticancer Drug Screen. Data for tumor model L1210 Leukemia (intraperitoneal) in CD2F1 (CDF1) mice
# Settings: higher = longer survival
# How it was run: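 In this screen, transplantable tumors were grown in mice given either the compound or its vehicle. Results were expressed as the treated measurement relative to the control measurement.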
# [1] = endpoint: mean survival time, dose: 100.0 mg/kg/injection, schedule: Q01DX009 (ip), vehicle: saline with Tween-80
# [2] = endpoint: mean survival time, dose: 200.0 mg/kg/injection, schedule: Q01DX009 (ip), vehicle: saline with Tween-80
# [3] = endpoint: mean survival time, dose: 400.0 mg/kg/injection, schedule: Q01DX009 (ip), vehicle: saline with Tween-80
# [4] = endpoint: mean survival time, dose: 100.0 mg/kg/injection, schedule: Q04DX003 (ip), vehicle: saline
# [5] = endpoint: mean survival time, dose: 200.0 mg/kg/injection, schedule: Q04DX003 (ip), vehicle: saline
# [6] = endpoint: mean survival time, dose: 200.0 mg/kg/injection, schedule: Q04DX003 (ip), vehicle: saline with Tween-80
# [7] = endpoint: mean survival time, dose: 6.25 mg/kg/injection, schedule: Q04DX003 (ip), vehicle: saline with Tween-80
# [8] = endpoint: mean survival time, dose: 12.5 mg/kg/injection, schedule: Q04DX003 (ip), vehicle: saline with Tween-80
compound,measurement,setting,value
CC(=O)c1ccc2sc3ccccc3c2c1,T/C,[1],98 % of control
same,T/C,[2],93 % of control
same,T/C,[3],93 % of control
CCC(C)(O)C(C)N(C)C1CCCCC1 (stereo not given),T/C,[4],97 % of control and 100 % of control
same,T/C,[5],100 % of control and 97 % of control
Nc1ncnc(N)c1NC(=O)c1ccc(Cl)c([N+](=O)[O-])c1,T/C,"endpoint: mean survival time, dose: 100.0 mg/kg/injection, schedule: Q04DX003 (ip), vehicle: saline with Tween-80",94 % of control
same,T/C,[6],93 % of control
same,T/C,"endpoint: mean survival time, dose: 400.0 mg/kg/injection, schedule: Q04DX003 (ip), vehicle: saline with Tween-80",88 % of control
COC(=O)/C=C/N(CCF)CCF,T/C,"endpoint: mean survival time, dose: 1.0 mg/kg/injection, schedule: Q01DX Z (ip), vehicle: saline",94 % of control
same,T/C,"endpoint: mean survival time, dose: 3.0 mg/kg/injection, schedule: Q01DX Z (ip), vehicle: saline",108 % of control
OCC(O)C(O)C(O)C(O)/C=N/O (stereo not given),T/C,"endpoint: mean survival time, dose: 50.0 mg/kg/injection, schedule: Q01DX009 (ip), vehicle: saline with Tween-80",97 % of control
same,T/C,[1],97 % of control
same,T/C,[2],104 % of control
O=S(=O)(O)CN(CCN(CS(=O)(=O)O)CS(=O)(=O)O)CS(=O)(=O)O,T/C,"endpoint: mean survival time, dose: 100.0 mg/kg/injection, schedule: Q01DX009 (ip), vehicle: saline sonified",96 % of control
same,T/C,[4],109 % of control
same,T/C,"endpoint: mean survival time, dose: 200.0 mg/kg/injection, schedule: Q01DX009 (ip), vehicle: saline sonified",92 % of control
same,T/C,[5],97 % of control
same,T/C,"endpoint: mean survival time, dose: 400.0 mg/kg/injection, schedule: Q01DX009 (ip), vehicle: saline sonified",91 % of control
same,T/C,"endpoint: mean survival time, dose: 400.0 mg/kg/injection, schedule: Q04DX003 (ip), vehicle: saline",97 % of control
c1ccc2[nH]c(CCCCc3nc4ccccc4[nH]3)nc2c1,T/C,[4],104 % of control
same,T/C,[5],100 % of control
[Co].[O-][Cl+3]([O-])([O-])O.c1ccc([PH+](CC[PH+](c2ccccc2)c2ccccc2)c2ccccc2)cc1.c1ccc([PH+](CC[PH+](c2ccccc2)c2ccccc2)c2ccccc2)cc1,T/C,[7],94 % of control
same,T/C,[8],98 % of control
same,T/C,"endpoint: mean survival time, dose: 25.0 mg/kg/injection, schedule: Q04DX003 (ip), vehicle: saline with Tween-80",110 % of control
same,T/C,[6],91 % of control
COc1ccc(C(=O)NS(=O)(=O)c2ccc(C)cc2)cc1,T/C,[1],103 % of control
same,T/C,[2],98 % of control
same,T/C,[3],104 % of control
C=CCOCC(O)C[As](=O)(O)c1ccc(Cl)cc1 (stereo not given),T/C,[7],109 % of control
same,T/C,[8],111 % of control
C[N+](C)(C)CCOC(=O)CCC(=O)OCC[N+](C)(C)C,T/C,"endpoint: mean survival time, dose: 0.31 mg/kg/injection, schedule: Q01DX009 (ip), vehicle: saline sonified",92 % of control
same,T/C,"endpoint: mean survival time, dose: 0.63 mg/kg/injection, schedule: Q01DX009 (ip), vehicle: saline sonified",96 % of control
same,T/C,"endpoint: mean survival time, dose: 1.25 mg/kg/injection, schedule: Q01DX009 (ip), vehicle: saline sonified",103 % of control
same,T/C,"endpoint: mean survival time, dose: 6.25 mg/kg/injection, schedule: Q04DX003 (ip), vehicle: saline",101 % of control
same,T/C,"endpoint: mean survival time, dose: 12.5 mg/kg/injection, schedule: Q04DX003 (ip), vehicle: saline",100 % of control
Nc1ccn([C@@H]2C=C(CO)[C@@H](O)[C@H]2O)c(=O)n1,T/C,"endpoint: median survival time, dose: 0.44 mg/kg/injection, schedule: Q01DX009 (ip), vehicle: saline",162 % of control and 168 % of control
same,T/C,"endpoint: median survival time, dose: 0.45 mg/kg/injection, schedule: Q01DX009 (ip), vehicle: saline",153 % of control
same,T/C,"endpoint: median survival time, dose: 0.67 mg/kg/injection, schedule: Q01DX009 (ip), vehicle: saline",180 % of control (2×) and 191 % of control
same,T/C,"endpoint: median survival time, dose: 0.67 mg/kg/injection, schedule: Q01DX009 (oral), vehicle: saline",101 % of control
same,T/C,"endpoint: median survival time, dose: 1.5 mg/kg/injection, schedule: Q01DX009 (oral), vehicle: saline",155 % of control and 205 % of control
same,T/C,"endpoint: median survival time, dose: 2.0 mg/kg/injection, schedule: Q04DX003 (ip), vehicle: saline",171 % of control
same,T/C,"endpoint: median survival time, dose: 2.25 mg/kg/injection, schedule: Q01DX009 (ip), vehicle: saline",117 % of control and 246 % of control
same,T/C,"endpoint: median survival time, dose: 2.25 mg/kg/injection, schedule: Q01DX009 (oral), vehicle: saline",157 % of control and 225 % of control
same,T/C,"endpoint: median survival time, dose: 4.0 mg/kg/injection, schedule: Q01DX009 (ip), vehicle: saline",93 % of control
same,T/C,"endpoint: median survival time, dose: 4.0 mg/kg/injection, schedule: Q04DX003 (ip), vehicle: saline",191 % of control
same,T/C,"endpoint: median survival time, dose: 5.05 mg/kg/injection, schedule: Q01DX009 (oral), vehicle: saline",123 % of control and 104 % of control
same,T/C,"endpoint: median survival time, dose: 8.0 mg/kg/injection, schedule: Q04DX003 (ip), vehicle: saline",183 % of control
same,T/C,"endpoint: median survival time, dose: 250.0 micrograms/kg/injection, schedule: Q03HX024 (ip), vehicle: saline",187 % of control
same,T/C,"endpoint: median survival time, dose: 500.0 micrograms/kg/injection, schedule: Q03HX024 (ip), vehicle: saline",216 % of control
same,T/C,"endpoint: median survival time, dose: 2000.0 micrograms/kg/injection, schedule: Q03HX024 (ip), vehicle: saline",96 % of control
